Measurements reported in patent US20190048052A1, “ANTI-MICROBIAL PEPTIDES AND COATINGS” (Board of Regents of the University of Nebraska, priority 2016, published 2019).
Residues, ends and D or L forms follow the SMILES beside them.

Tests used:
S. aureus USA300 = experiment: Killing kinetics by colony counting; type: cell-based, Staphylococcus aureus; settings: 10^5 CFU S. aureus USA300, colony counting
Method: Killing kinetic experiments were conducted similar to antibacterial assays described above with the following modifications (Wang et al. (2012) Antimicrob. Agents Chemother., 56:845-856). Aliquots of cultures (10^5 CFU) treated with TetraF2W peptides were taken at 15, 30, 50, 90, and 120 minutes, diluted 100-fold, and plated on Luria-Bertani (LB) agar plates. Colonies were counted after overnight incubation at 37° C.

E. coli ATCC 25922 = type: cell-based, Escherichia coli; settings: ATCC 25922, 20 h
Method: The antimicrobial activity of peptides was evaluated using a standard broth microdilution protocol. In brief, exponential phase bacteria at 10^6 CFU were incubated with serially diluted peptides overnight for ˜20 hours at 37° C. The plates were read on a ChroMate® 4300 Microplate Reader at 630 nm (GMI, Ramsey, Minn.).

proteinase K = molecular target: T1, proteinase K (Parengyodontium album, UniProt P06873); experiment: Peptide stability to proteases (SDS-PAGE); type: in vitro ADME, fungal; settings: peptide:protease 40:1, 24 hours, 37° C.
T1 construct: purchased Sigma or Fisher
T1 sequence (P06873 106-384): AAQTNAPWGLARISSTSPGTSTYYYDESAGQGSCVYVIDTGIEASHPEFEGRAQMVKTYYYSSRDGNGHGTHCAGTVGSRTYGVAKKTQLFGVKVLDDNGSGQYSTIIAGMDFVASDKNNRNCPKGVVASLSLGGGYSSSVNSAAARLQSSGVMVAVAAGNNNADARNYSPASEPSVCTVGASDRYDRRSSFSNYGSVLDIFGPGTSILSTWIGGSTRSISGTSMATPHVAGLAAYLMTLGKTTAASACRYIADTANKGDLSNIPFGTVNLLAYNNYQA
Method: When degraded, no peptide band could be detected on a 5% stacking/18% resolving tricine gel after 2-4 hours incubation at 37° C. Briefly, a solution (100 μL) containing 250 μM peptide and 6.25 μM protease (Sigma or Fisher) in 10 mM PBS buffer (pH 8) was incubated at 37° C. (peptide/protease molar ratio, 40:1). Aliquots (10 μL) of the reaction solutions were taken at 0, 6, and 24 hours and immediately mixed with 10 μL of 2× SDS loading buffer followed by boiling for 5 minutes to stop the reaction. […] After electrophoresis, the gel was stained by Brilliant Blue R-250 (Fisher) and destained to view the peptide bands.

| SMILES | time in which all the bacteria were killed (S. aureus USA300) | E. coli (MIC) (E. coli ATCC 25922) | stability to fungal proteinase K (proteinase K) |
| --- | --- | --- | --- |
| CC[C@H](C)[C@H](NC(=O)[C@H](CCCNC(=N)N)NC(=O)[C@H](CCCNC(=N)N)NC(=O)[C@H](CC(C)C)NC(=O)[C@H](Cc1c[nH]c2ccccc12)NC(=O)[C@H](Cc1c[nH]c2ccccc12)NC(=O)[C@@H](N)Cc1c[nH]c2ccccc12)C(=O)N[C@@H](Cc1c[nH]c2ccccc12)C(N)=O [TetraF2W-RR, WWWLRRIW] (H-WWWLRRIW-NH2; N-terminus assumed) | 90 min | 6.2 µM | – |
| CC[C@H](C)[C@H](NC(=O)[C@H](CCCCN)NC(=O)[C@H](CCCNC(=N)N)NC(=O)[C@H](CC(C)C)NC(=O)[C@H](Cc1c[nH]c2ccccc12)NC(=O)[C@H](Cc1c[nH]c2ccccc12)NC(=O)[C@@H](N)Cc1c[nH]c2ccccc12)C(=O)N[C@@H](Cc1c[nH]c2ccccc12)C(N)=O [TetraF2W-RK, WWWLRKIW] (H-WWWLRKIW-NH2; N-terminus assumed) | – | – | completely degraded |
